# Test results taken from PubChem BioAssay (NCI).
#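 Five concentrations, 48 hours, 96-well plates. TGI is the concentration that stops growth completely.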
# Assays:
# Assay in all cases: NCI tumour cell line growth inhibition, 48 h
# OVCAR-8 ovarian = tested on: OVCAR-8 ovarian
# OVCAR-5 ovarian = tested on: OVCAR-5 ovarian
# OVCAR-3 ovarian = tested on: OVCAR-3 ovarian
# HCT-15 colon = tested on: HCT-15 colon
# SF-539 CNS = tested on: SF-539 CNS
# DMS 114 small cell lung = tested on: DMS 114 small cell lung
# SF-295 CNS = tested on: SF-295 CNS
# RPMI-8226 leukemia = tested on: RPMI-8226 leukemia
# HOP-92 NSCLC = tested on: HOP-92 NSCLC
# SK-OV-3 ovarian = tested on: SK-OV-3 ovarian
# SK-MEL-2 melanoma = tested on: SK-MEL-2 melanoma
# UO-31 renal = tested on: UO-31 renal
# HL-60(TB) leukemia = tested on: HL-60(TB) leukemia
# IGROV1 ovarian = tested on: IGROV1 ovarian
# HOP-62 NSCLC = tested on: HOP-62 NSCLC
# NCI-H522 lung = tested on: NCI-H522 lung
# NCI-H23 lung = tested on: NCI-H23 lung
# DMS 273 small cell lung = tested on: DMS 273 small cell lung
# DLD-1 colon = tested on: DLD-1 colon
# HT29 colon = tested on: HT29 colon
# COLO 205 colon = tested on: COLO 205 colon
# EKVX NSCLC = tested on: EKVX NSCLC
# SNB-19 CNS = tested on: SNB-19 CNS
# KM12 colon = tested on: KM12 colon
# M19-MEL melanoma = tested on: M19-MEL melanoma
# LXFL 529 NSCLC = tested on: LXFL 529 NSCLC
# UACC-257 melanoma = tested on: UACC-257 melanoma
# SK-MEL-28 melanoma = tested on: SK-MEL-28 melanoma
# U251 CNS = tested on: U251 CNS
# A549 NSCLC = tested on: A549 NSCLC
# NCI-H226 lung = tested on: NCI-H226 lung
# LOX IMVI melanoma = tested on: LOX IMVI melanoma
# SNB-78 CNS = tested on: SNB-78 CNS
# SN12C renal = tested on: SN12C renal
# M14 melanoma = tested on: M14 melanoma
# CCRF-CEM leukemia = tested on: CCRF-CEM leukemia
# SW-620 colon = tested on: SW-620 colon
# A498 renal = tested on: A498 renal
# OVCAR-4 ovarian = tested on: OVCAR-4 ovarian
# K-562 leukemia = tested on: K-562 leukemia
# HCC-2998 colon = tested on: HCC-2998 colon
# ACHN renal = tested on: ACHN renal
# MOLT-4 leukemia = tested on: MOLT-4 leukemia
# SNB-75 CNS = tested on: SNB-75 CNS
# SK-MEL-5 melanoma = tested on: SK-MEL-5 melanoma
# 786-0 renal = tested on: 786-0 renal
# CAKI-1 renal = tested on: CAKI-1 renal
# KM20L2 colon = tested on: KM20L2 colon
# MALME-3M melanoma = tested on: MALME-3M melanoma
# HCT-116 colon = tested on: HCT-116 colon
# XF 498 CNS = tested on: XF 498 CNS
# TK-10 renal = tested on: TK-10 renal
# SF-268 CNS = tested on: SF-268 CNS
# NCI-H460 lung = tested on: NCI-H460 lung
# UACC-62 melanoma = tested on: UACC-62 melanoma
# T-47D breast = tested on: T-47D breast
# RXF 393 renal = tested on: RXF 393 renal
# MDA-N = tested on: MDA-N
# MDA-MB-231 breast = tested on: MDA-MB-231 breast
# NCI/ADR-RES ovarian = tested on: NCI/ADR-RES ovarian
# DU-145 prostate = tested on: DU-145 prostate
# HS 578T breast = tested on: HS 578T breast
# SR leukemia = tested on: SR leukemia
# MDA-MB-435 = tested on: MDA-MB-435
# BT-549 breast = tested on: BT-549 breast
# PC-3 prostate = tested on: PC-3 prostate
# MCF7 breast = tested on: MCF7 breast
# HOP-18 NSCLC = tested on: HOP-18 NSCLC
compound,measurement,setting,value
O=C(CC(CC(=O)Oc1c(Br)cc(Br)cc1C(=O)O)C(=O)Oc1c(Br)cc(Br)cc1C(=O)O)Oc1c(Br)cc(Br)cc1C(=O)O,TGI,OVCAR-8 ovarian,99.6 µM
same,TGI,OVCAR-5 ovarian,> 100 µM
same,TGI,OVCAR-3 ovarian,> 100 µM
same,TGI,HCT-15 colon,> 100 µM
same,TGI,SF-539 CNS,> 100 µM
same,TGI,DMS 114 small cell lung,> 100 µM
same,TGI,SF-295 CNS,> 100 µM
same,TGI,RPMI-8226 leukemia,> 100 µM
same,TGI,HOP-92 NSCLC,49.8 µM
same,TGI,SK-OV-3 ovarian,> 100 µM
same,TGI,SK-MEL-2 melanoma,> 100 µM
same,TGI,UO-31 renal,> 100 µM
same,TGI,HL-60(TB) leukemia,96.6 µM
same,TGI,IGROV1 ovarian,87.3 µM
same,TGI,HOP-62 NSCLC,> 100 µM
same,TGI,NCI-H522 lung,55.4 µM
same,TGI,NCI-H23 lung,> 100 µM
same,TGI,DMS 273 small cell lung,> 100 µM
same,TGI,DLD-1 colon,> 100 µM
same,TGI,HT29 colon,> 100 µM
same,TGI,COLO 205 colon,> 100 µM
same,TGI,EKVX NSCLC,> 100 µM
same,TGI,SNB-19 CNS,> 100 µM
same,TGI,KM12 colon,> 100 µM
same,TGI,M19-MEL melanoma,> 100 µM
same,TGI,LXFL 529 NSCLC,> 100 µM
same,TGI,UACC-257 melanoma,> 100 µM
same,TGI,SK-MEL-28 melanoma,> 100 µM
same,TGI,U251 CNS,> 100 µM
same,TGI,A549 NSCLC,> 100 µM
same,TGI,NCI-H226 lung,57 µM
same,TGI,LOX IMVI melanoma,> 100 µM
same,TGI,SNB-78 CNS,> 100 µM
same,TGI,SN12C renal,> 100 µM
same,TGI,M14 melanoma,> 100 µM
same,TGI,CCRF-CEM leukemia,> 100 µM
same,TGI,SW-620 colon,> 100 µM
same,TGI,A498 renal,> 100 µM
same,TGI,OVCAR-4 ovarian,> 100 µM
same,TGI,K-562 leukemia,> 100 µM
same,TGI,HCC-2998 colon,> 100 µM
same,TGI,ACHN renal,> 100 µM
same,TGI,MOLT-4 leukemia,> 100 µM
same,TGI,SNB-75 CNS,93.3 µM
same,TGI,SK-MEL-5 melanoma,> 100 µM
same,TGI,786-0 renal,> 100 µM
same,TGI,CAKI-1 renal,> 100 µM
same,TGI,KM20L2 colon,> 100 µM
same,TGI,MALME-3M melanoma,> 100 µM
same,TGI,HCT-116 colon,> 100 µM
same,TGI,XF 498 CNS,38.9 µM
same,TGI,TK-10 renal,> 100 µM
same,TGI,SF-268 CNS,> 100 µM
same,TGI,NCI-H460 lung,> 100 µM
same,TGI,UACC-62 melanoma,> 100 µM
CCCCNc1nc2ccccc2c2c1ncn2CC(C)C,TGI,OVCAR-8 ovarian,> 100 µM
same,TGI,OVCAR-5 ovarian,> 100 µM
same,TGI,T-47D breast,> 100 µM
same,TGI,OVCAR-3 ovarian,> 100 µM
same,TGI,HCT-15 colon,> 100 µM
same,TGI,SF-539 CNS,> 100 µM
same,TGI,RXF 393 renal,> 100 µM
same,TGI,SF-295 CNS,> 100 µM
same,TGI,RPMI-8226 leukemia,> 100 µM
same,TGI,HOP-92 NSCLC,> 100 µM
same,TGI,SK-OV-3 ovarian,> 100 µM
same,TGI,SK-MEL-2 melanoma,> 100 µM
same,TGI,UO-31 renal,> 100 µM
same,TGI,HL-60(TB) leukemia,> 100 µM
same,TGI,IGROV1 ovarian,> 100 µM
same,TGI,HOP-62 NSCLC,> 100 µM
same,TGI,NCI-H522 lung,> 100 µM
same,TGI,NCI-H23 lung,> 100 µM
same,TGI,HT29 colon,> 100 µM
same,TGI,COLO 205 colon,> 100 µM
same,TGI,EKVX NSCLC,> 100 µM
same,TGI,SNB-19 CNS,> 100 µM
same,TGI,KM12 colon,> 100 µM
same,TGI,MDA-N,> 100 µM
same,TGI,UACC-257 melanoma,> 100 µM
same,TGI,SK-MEL-28 melanoma,> 100 µM
same,TGI,U251 CNS,> 100 µM
same,TGI,MDA-MB-231 breast,> 100 µM
same,TGI,A549 NSCLC,> 100 µM
same,TGI,NCI-H226 lung,> 100 µM
same,TGI,LOX IMVI melanoma,> 100 µM
same,TGI,SN12C renal,> 100 µM
same,TGI,M14 melanoma,> 100 µM
same,TGI,CCRF-CEM leukemia,> 100 µM
same,TGI,NCI/ADR-RES ovarian,> 100 µM
same,TGI,DU-145 prostate,> 100 µM
same,TGI,SW-620 colon,> 100 µM
same,TGI,HS 578T breast,> 100 µM
same,TGI,A498 renal,> 100 µM
same,TGI,SR leukemia,> 100 µM
same,TGI,OVCAR-4 ovarian,> 100 µM
same,TGI,K-562 leukemia,> 100 µM
same,TGI,MDA-MB-435,> 100 µM
same,TGI,HCC-2998 colon,> 100 µM
same,TGI,BT-549 breast,> 100 µM
same,TGI,ACHN renal,> 100 µM
same,TGI,MOLT-4 leukemia,> 100 µM
same,TGI,SNB-75 CNS,> 100 µM
same,TGI,SK-MEL-5 melanoma,> 100 µM
same,TGI,786-0 renal,> 100 µM
same,TGI,CAKI-1 renal,> 100 µM
same,TGI,MALME-3M melanoma,> 100 µM
same,TGI,HCT-116 colon,> 100 µM
same,TGI,TK-10 renal,> 100 µM
same,TGI,PC-3 prostate,> 100 µM
same,TGI,MCF7 breast,> 100 µM
same,TGI,SF-268 CNS,> 100 µM
same,TGI,NCI-H460 lung,> 100 µM
same,TGI,UACC-62 melanoma,> 100 µM
COc1ccc(/C=N/NC(=O)c2sc(=S)n(-c3ccccc3)c2N)cc1,TGI,OVCAR-8 ovarian,> 100 µM
same,TGI,OVCAR-5 ovarian,> 100 µM
same,TGI,OVCAR-3 ovarian,> 100 µM
same,TGI,SF-539 CNS,> 100 µM
same,TGI,SF-295 CNS,> 100 µM
same,TGI,HOP-92 NSCLC,79.5 µM
same,TGI,SK-OV-3 ovarian,> 100 µM
same,TGI,UO-31 renal,> 100 µM
same,TGI,HL-60(TB) leukemia,> 100 µM
same,TGI,IGROV1 ovarian,> 100 µM
same,TGI,HOP-62 NSCLC,> 100 µM
same,TGI,NCI-H522 lung,> 100 µM
same,TGI,NCI-H23 lung,> 100 µM
same,TGI,DLD-1 colon,> 100 µM
same,TGI,HT29 colon,> 100 µM
same,TGI,COLO 205 colon,> 100 µM
same,TGI,SNB-19 CNS,> 100 µM
same,TGI,KM12 colon,> 100 µM
same,TGI,M19-MEL melanoma,> 100 µM
same,TGI,LXFL 529 NSCLC,> 100 µM
same,TGI,UACC-257 melanoma,> 100 µM
same,TGI,SK-MEL-28 melanoma,> 100 µM
same,TGI,HOP-18 NSCLC,> 100 µM
same,TGI,U251 CNS,> 100 µM
same,TGI,A549 NSCLC,> 100 µM
same,TGI,NCI-H226 lung,> 100 µM
same,TGI,CCRF-CEM leukemia,> 100 µM
same,TGI,SW-620 colon,> 100 µM
same,TGI,SR leukemia,> 100 µM
same,TGI,K-562 leukemia,> 100 µM
same,TGI,HCC-2998 colon,> 100 µM
same,TGI,ACHN renal,> 100 µM
same,TGI,MOLT-4 leukemia,> 100 µM
same,TGI,SNB-75 CNS,8.67 µM
same,TGI,SK-MEL-5 melanoma,> 100 µM
same,TGI,HCT-116 colon,> 100 µM
same,TGI,TK-10 renal,> 100 µM
same,TGI,SF-268 CNS,> 100 µM
same,TGI,NCI-H460 lung,> 100 µM
same,TGI,UACC-62 melanoma,> 100 µM
